“Also recorded” adds a separate entry of the source.
Assays:
[1] = tested on: ACh in the cortical and hippocampal regions of the brain; conditions: U.S. Pat. No. 5,137,878; cited from earlier work
T type calcium channel = T type calcium channel currents in N1E115 neuroblastoma cells (whole-cell patch-clamp); format: cell-based, mouse; conditions: same concentration (100 μM); N1E-115 cells
Experimental: A study of the effects of HT1001 and some pure ginsenosides on calcium channel activity in cultured neuroblastoma cells was conducted.
Neuroblastoma Cell Culture. Mouse neuroblastoma cells (N1E115) were cultured in Dulbecco's modified Eagle's medium (GIBCO) containing 10% fetal bovine serum at 37° C. in a humidified atmosphere of 5% CO2 in air. The medium was changed every 3-4 days. After mechanical agitation, 3×10^4 cells were replanted in 35 mm tissue culture dishes containing 4 ml of bath solution. After cell attachment, the dish was mounted on the stage of an inverted phase-contrast microscope (Nikon) for Ca^2+ channel current recording. These cells expressed predominately T channel currents. In experiments where L channels were specifically sought, the cells were grown and maintained at confluence for 3-4 weeks under the same culture conditions with the addition of 2% (vol/vol) dimethyl sulfoxide. Three to five days before use, the cells were replanted with the same medium. These cells expressed predominately L channel currents. […]
Ca^2+ Channel Current Recording in Neuroblastoma Cells. […] Since the peak currents measured with 20 mM Ba^2+ as the charge carrier were usually small (about 200 pA) the series resistance compensation was not usually employed. […] For every single-cell recording, stable readings were first obtained for 5 min; the drug was then added to the bath solution. […]

PC12 cells = assay: neurite outgrowth in PC12 cells; format: cell-based; conditions: seven days after treatment
Experimental: A study of the neurotrophic effects of HT1001 and some pure ginsenosides was conducted. A new mechanism of action for HT1001 was shown, which is the stimulation of neurite outgrowth in a PC12 cell line. […] The beneficial effects (prevention/treatment) of HT-1001 may apply to degenerative diseases such as senile dementia, Parkinson's disease, Alzheimer's disease, multi-infarct dementia, etc. Alzheimer's disease (AD) is associated with degeneration of cholinergic nerve tracts including projections from the basal forebrain to the cortex and hippocampus. The PC12 (pheochromocytoma) cell line is one of the models for the study of the development of these nerve tracts. The cell line is phenotypically a chromaffin cell line, but can be induced to express adrenergic and cholinergic markers as well. This model has the advantages that (1) it is an immortalized cell line, (2) it is sensitive to, but not dependent upon, NGF for survival, and (3) it shares many properties in common with the central cholinergic neurons of the basal forebrain. It has been noted that PC12 cells are not sensitive to all of the trophic factors that central cholinergic neurons respond to, whereas central cholinergic neurons respond to all trophic factors that PC12 cells respond to. […] The cellular responses to Nerve Growth Factor (NGF) and samples were determined by counting the number of cells containing processes in PC12 cells. […] The cells and neurites were counted as follows: The cells with circular or global shape and no neurite outgrowth were scored as 0 (S0). […] Cells with more than two small neurites on the cell bodies were scored as S2. Cells with one or two neurites with a length of at least two times diameter as their body were scored as S3. Cells with more than two long neurites were scored as S4. The neurite index was calculated as below: Neurite index (In)=total neurite Score (ΣS)/total cell number (.[…] is the cell number of every cell field. The test samples included: […]

Structure (SMILES)	availability of ACh [1]	symptoms of Alzheimer-type senile dementia [1]	effect on T type calcium channel currents (T type calcium channel)	neurite outgrowth (FIG. 31) (PC12 cells)
CC(C)=CCC[C@](C)(O[C@@H]1O[C@H](CO[C@@H]2O[C@H](CO)[C@@H](O)[C@H](O)[C@H]2O)[C@@H](O)[C@H](O)[C@H]1O)[C@H]1CC[C@]2(C)[C@@H]1[C@H](O)C[C@@H]1[C@@]3(C)CC[C@H](O[C@@H]4O[C@H](CO)[C@@H](O)[C@H](O)[C@H]4O[C@@H]4O[C@H](CO)[C@@H](O)[C@H](O)[C@H]4O)C(C)(C)[C@@H]3CC[C@]12C [Rb1, ginsenoside Rb1]	enhance the availability of ACh	alleviate the symptoms of Alzheimer-type senile dementia	significant inhibitory effect; also recorded: inhibitory effects	significantly increased neurite outgrowth
CC(C)=CCC[C@](C)(O[C@@H]1O[C@H](CO)[C@@H](O)[C@H](O)[C@H]1O)[C@H]1CC[C@]2(C)[C@@H]1[C@H](O)C[C@@H]1[C@@]3(C)CC[C@H](O)C(C)(C)[C@@H]3[C@@H](O[C@@H]3O[C@H](CO)[C@@H](O)[C@H](O)[C@H]3O)C[C@]12C [Rg1, ginsenoside Rg1]	enhance the availability of ACh	alleviate the symptoms of Alzheimer-type senile dementia	significant inhibitory effect; also recorded: inhibitory effects	significantly increased neurite outgrowth

Source: US6083932A, “Pharmaceutical compositions derived from ginseng and methods of treatment using same” (CV Technologies Inc., priority 1998, dated 2000)
